The source of these data is US20260306525A1, “COMBINATION THERAPY GLUCOCORTICOIDS AND GINSENOSIDE” (FYTAGORAS B.V., priority 2023, published 2026).

One data set relates to zebrafish larvae. Description: whole-body glucose measurement of zebrafish larvae. The conditions noted are these: for whole body glucose level: 0-5 dpf, 10 μM beclomethasone, 50 μM Rg1 or combination; for whole-body glucose level: Example 2, non-wounded; for whole-body glucose level / whole-body glucose level upon wounding: 5 dpf; for whole-body glucose level upon wounding: Example 2, wounded at 2 dpf.

The test system of the next data set is macrophages. Description: zebrafish tail fin wounding assay, macrophage migration to wounded site. It counts as in vivo, zebrafish (Danio rerio). The conditions noted are these: Example 2; PPT 50 μM; F1, Rh1, Rg1 100 μM; Bec positive control; 3 dpf. The method, then: Zebrafish (Danio rerio) were maintained and handled according to the guidelines from the Zebrafish Model Organism Database (http://zfin.org) and in compliance with the directives of the local animal welfare committee of Leiden University. Zebrafish were exposed to a 14 h light and 10 h dark cycle to maintain circadian rhythmicity. Fertilization was performed by natural spawning at the beginning of the light period. […] The following zebrafish lines were used in this study: the double transgenic line Tg(mpx:GFP^i114/mpeg1:mCherry^umsF001), in which neutrophils and macrophages are fluorescently labeled (green and red, respectively), and the Tg(9xGCRE-HSV.UI23:EGFP)^ia20 reporter line, in which the gene encoding enhanced green fluorescent protein (EGFP) is driven by a GRE-containing promoter.
For the tail fin wounding experiments, 20 larvae at 2 or 3 days post-fertilization (dpf) were utilized for each experimental group. For wounding, larvae were anesthetized in egg water containing 0.02% buffered aminobenzoic acid ethyl ester (tricaine; Sigma-Aldrich). Larvae were placed on Petri dishes coated with 2% agarose under a Leica M165C stereomicroscope (Leica Microsystems, Wetzlar, Germany), and the tails were partly amputated using a 1-mm sapphire blade (World Precision Instruments, Sarasota, FL, USA). For quantification of leukocyte migration, larvae were fixed overnight in 4% paraformaldehyde (PFA) at 4° C. The next day, fixed larvae were washed with Phosphate Buffered Saline (PBS) containing 0.1% Tween 20, and stored at 4° C. until imaging.
The macrophages were detected based on their red (mCherry) fluorescence, and neutrophils based on their green (EGFP) fluorescence. To quantify the number of macrophages and neutrophils recruited to the wounded area, the cells in a defined area of the tail were determined by blinded manual counting.
Zebrafish (Danio rerio) were maintained and handled according to the guidelines from the Zebrafish Model Organism Database (http://zfin.org) and in compliance with the directives of the local animal welfare committee of Leiden University. Zebrafish were exposed to a 14 h light and 10 h dark cycle to maintain circadian rhythmicity. Fertilization was performed by natural spawning at the beginning of the light period. […] The following zebrafish lines were used in this study: AB/TL wild type, the transgenic lines Tg(mpx:GFP^i114/mpeg1:mCherry^umsF001)[14, 15], and Tg(9xGCRE-HSV.UI23:EGFPia^20)[16], and the mutant lines grs357[20].
For the tail fin wounding experiments, 2- or 3-days post-fertilization (dpf) larvae were anesthetized in egg water containing 0.02% buffered aminobenzoic acid ethyl ester (tricaine; Sigma-Aldrich). Larvae were placed in Petri dishes coated with 2% agarose under a Leica M165C stereomicroscope (Leica Microsystems, Wetzlar, Germany), and the tails were partly amputated using a 1-mm sapphire blade (World Precision Instruments, Sarasota, FL, USA).
In experiments in which the leukocyte migration was used as a readout, larvae were subjected to treatment with chemicals as indicated, starting at 2 h before the amputation (pretreatment), and treatment was continued for 4 h after the tail fin amputation (20 larvae per group, unless indicated otherwise). In some experiments, a 24 h treatment with MZ31 (10 μM) was started at 2 dpf, and these treatments were continued during the pretreatment and treatment with the other chemicals. At 4 h after amputation, the larvae were fixed in 4% paraformaldehyde (PFA) overnight at 4° C. The next day, fixed larvae were washed with Phosphate Buffered Saline (PBS) containing 0.1% Tween 20 and stored at 4° C. until imaging. […] The macrophages were detected based on red (mCherry) fluorescence and neutrophils on their green (EGFP) fluorescence. To quantify the number of macrophages and neutrophils recruited to the wounded area, the cells in a defined area of the tail were determined by blinded manual counting. […]

A further data set concerns pck1. Description: qPCR pck1 expression in zebrafish larvae. The conditions noted are these: for pck1 expression, short-term treatment / pck1 expression, long-term treatment: 5 dpf, beclomethasone 10 μM, Rg1 50 μM or combination; for pck1 expression, long-term treatment: 5 days. Format: in vivo, zebrafish (Danio rerio). The method, then: […] Groups of 15 larvae were collected in TRIzol reagent (ThermoFisher) and total RNA was isolated using miRNeasy mini kit (Qiagen, Hilden, Germany). For experiments in HeLa cells, cells were seeded in 6 well plates and after treatment, the cells were removed from the wells using TRIzol reagent and mRNA was isolated using miRNeasy mini kit (Qiagen) according to the manufacturer's instructions. The RNA samples were DNAse-treated utilizing the DNA-free™ DNA Removal Kit (ThermoFisher Scientific). The cDNA synthesis was performed using the iScript cDNA synthesis kit (Bio-Rad Laboratories, Hercules, CA, USA) using 1 μg of RNA per sample. For qPCR, 10 μM of forward primer and 10 μM of reverse primer, 12.5 μl of IQ SYBR Green Supermix (Bio-Rad Laboratories), and 2 μl of cDNA were added to the qPCR reaction mixture. […] The qPCR reactions were performed on a MyiQ-single-color real-time PCR detection system (Bio-Rad Laboratories), with initial denaturation for 3 min, 95° C., and 40 cycles of 15 s at 95.5° C., 15 s at 60° C., and 30 s at 72° C. Cycle threshold values (Ct values, i.e. the cycle numbers at which a threshold value of the fluorescence intensity was reached) were determined for each sample. The gene expression level for each sample was normalized using the expression of ppial (peptidylprolyl isomerase Ab (cyclophilin A)) for zebrafish samples, and 18S rRNA for human cells. The fold change per sample (compared to the respective control group) was calculated using the […]Ct method.
[…] Per sample, groups of 15 larvae were collected in TRIzol reagent (Thermo Fisher Scientific, Waltham, MA, USA), and total RNA was isolated using the miRNeasy mini kit (Qiagen, Hilden, Germany). For similar experiments in Hela cells, cells were seeded in 6 well plates, and after 6 h of chemical treatment, the cells were removed from the wells using TRIzol reagent, and total RNA was isolated using the miRNeasy mini kit according to the manufacturer's instructions. The RNA samples were DNAse-treated utilizing the DNA-free™ DNA Removal Kit (Thermo Fisher Scientific). The cDNA synthesis was performed using the iScript cDNA synthesis kit (Bio-Rad Laboratories, Hercules, CA, USA) using 1 μg of RNA per sample. For the PCR reactions, 10 μM of forward and 10 μM of reverse primer, 12.5 μl of iQ SYBR Green Supermix (Bio-Rad), and 2 μl of cDNA were added to the qPCR reaction mixture. […] The reactions were performed on a MyiQ-single-color real-time PCR detection system (Bio-Rad Laboratories) with initial denaturation for 3 min at 95° C. and 40 cycles of 15 s at 95.5° C., 15 s at 60° C., and 30 s at 72° C. Cycle threshold values (Ct values, i.e. the cycle numbers at which a threshold value of the fluorescence intensity was reached) were determined for each sample. The gene expression level for each sample was normalized using the expression of ppial (peptidylprolyl isomerase Ab (cyclophilin A)) for zebrafish samples, 18S rRNA for human cells. The fold change per sample (compared to the respective control group) was calculated using the ΔΔCt method.
(In qPCR the cycle at which signal appears reflects the starting amount.)

Setting [1] is: 3 dpf, wounded larvae, 6 h, 10 μM beclomethasone, 50 μM Rg1 or combination.

Take `CC(C)=CCC[C@](C)(O[C@@H]1O[C@H](CO)[C@@H](O)[C@H](O)[C@H]1O)[C@H]1CC[C@]2(C)[C@@H]1[C@H](O)C[C@@H]1[C@@]3(C)CC[C@H](O)C(C)(C)[C@@H]3[C@@H](O[C@@H]3O[C@H](CO)[C@@H](O)[C@H](O)[C@H]3O)C[C@]12C` [Rg1, (3β,6α, 12β)-3,12-Dihydroxydammar-24-ene-6,20-diyl bis-β-D-glucopyranoside]: in the data set with zebrafish larvae, the “whole body glucose level” value was “did not affect the whole-body glucose and cortisol concentrations”; the whole-body glucose level entry is recorded as “did not show any side effects”; the “whole-body glucose level upon wounding” value was “still not show any effect on the glucose or cortisol level or on tissue regeneration”. Also, the “macrophage migration upon tail fin wounding” value with macrophages is on record as “without affecting the macrophage migration”. In addition, the pck1 expression result with pck1 (setting [1]) is reported as “did not affect the expression of these genes”. Besides, the “pck1 expression, short-term treatment” value with pck1 (6 h) is reported as “did not affect the expression of the genes”. Also, in the data set with pck1, the “pck1 expression, long-term treatment” value is listed as “did not affect the expression of the genes”. Moreover, the pck1 expression entry in the data set on pck1 (Example 2, 6 h treatment) is recorded as “did not increase the expression”.
For `C[C@H]1C[C@H]2[C@@H]3CCC4=CC(=O)C=C[C@]4(C)[C@@]3(Cl)[C@@H](O)C[C@]2(C)[C@@]1(O)C(=O)CO` [beclomethasone, reference compound], in the data set with zebrafish larvae, the “whole body glucose level” value was “elevated whole body glucose” and the whole-body glucose level entry is listed as “increase in the glucose level”. In the data set on zebrafish larvae (beclomethasone 0.1, 1, 5, 10, 15 μM without or with 50 μM Rg1), the “dose-response of whole-body glucose level” value is “dose-dependent effect”. In addition, the “macrophage migration upon tail fin wounding” value in the data set with macrophages is “without affecting the macrophage migration”. Further, the pck1 expression result in the data set with pck1 (setting [1]) was “upregulated the expression of pck1 and fkbp5”. Further, the “pck1 expression, short-term treatment” value in the data set with pck1 (6 h) is “upregulated the expression”. In the data set on pck1, the “pck1 expression, long-term treatment” value is “this upregulation of pck1 and nfkbiaa was significantly reduced after long-term treatment”.
`CC(C)=CCC[C@](C)(O)[C@H]1CC[C@]2(C)[C@@H]1[C@H](O)C[C@@H]1[C@@]3(C)CC[C@H](O)C(C)(C)[C@@H]3[C@@H](O[C@@H]3O[C@H](CO)[C@@H](O)[C@H](O)[C@H]3O)C[C@]12C` [Rh1]: in the data set on zebrafish larvae, the whole-body glucose level result is “did not show any side effects” and the “whole-body glucose level upon wounding” value was “still not show any effect on the glucose or cortisol level or on tissue regeneration”. In the data set with macrophages, the “macrophage migration upon tail fin wounding” value is listed as “without affecting the macrophage migration”. Also, in the data set with pck1 (Example 2, 6 h treatment), the pck1 expression entry is given as “did not increase the expression”.
For `CC(C)=CCC[C@](C)(O[C@@H]1O[C@H](CO)[C@@H](O)[C@H](O)[C@H]1O)[C@H]1CC[C@]2(C)[C@@H]1[C@H](O)C[C@@H]1[C@@]3(C)CC[C@H](O)C(C)(C)[C@@H]3[C@@H](O)C[C@]12C` [F1] the same measures were “did not show any side effects”, “did not affect the glucose level”, “without affecting the macrophage migration” and “did not increase the expression”.
With `CC(C)=CCC[C@](C)(O)[C@H]1CC[C@]2(C)[C@@H]1[C@H](O)C[C@@H]1[C@@]3(C)CC[C@H](O)C(C)(C)[C@@H]3[C@@H](O)C[C@]12C` [PPT, Protopanaxatriol], the whole-body glucose level result in the data set with zebrafish larvae was “did not affect the glucose level”. In addition, the “macrophage migration upon tail fin wounding” value in the data set on macrophages is listed as “without affecting the macrophage migration”. For the same molecule, the pck1 expression result with pck1 (Example 2, 6 h treatment) is reported as “did not increase the expression”.
